Test results from paper PMC4745926, “Absorption, Metabolism, and Excretion by Freely Moving Rats of 3,4-DHPEA-EDA and Related Polyphenols from Olive Fruits (Olea europaea)” (Journal of Nutrition and Metabolism, 2016).
Several values for one entry are separate records, joined by “and”; a condition that tells them apart may be missing. Equal entries are not always repeated. Entries after “also recorded” stand apart in the source; their conditions may differ.

Legend:
[1] = Urinary excretion after oral administration; format: in vivo, Wistar ST rats
Description: (§1) SPF Wistar ST rats (6 weeks of age, male, 180 ± 20 g of body weight) were purchased from Japan SLC Inc. (Hamamatsu, Japan). The rats were housed in an air-conditioned room at 22 ± 2°C under cycles of 12 hours dark and 12 hours light and given free access to a commercial diet and water for a week. The rats were then fasted for over 16 hours before the experiments. The present study was approved by the Animal Care and Use Committee at Kagawa University, and the rat treatment conformed to the Rules of Animal Experiments at Kagawa University. 3,4-[…] (300 mg/kg body weight; 936.51 μmol/kg) dissolved in 50% polyethylene glycol aqueous solution was administered orally via a stomach tube to the portal vein cannulated rats. Blood samples (450 μL) were then collected using a heparinized syringe attached to the cannula before administration and 5, 15, 30, 60, 120, and 240 min after administration. Urine was also collected before administration and 0 to 2 h and 2 to 4 h after administration. For intravenous administration, 3,4-[…] (10 mg/kg; 31.22 μmol/kg) was injected into the jugular vein, and blood (450 μL) was collected using a heparinized syringe before administration and 5, 15, 30, 60, 120, and 240 min after administration via the jugular vein cannula. The blood (450 μL) collected was immediately cooled on ice and centrifuged at 15,000 rpm for 5 min at 4°C to obtain over 200 μL plasma. Urine was also collected before administration and 0 to 2 h and 2 to 4 h after administration. Bile was collected via the bile duct cannula before administration and 0 to 2 h and 2 to 4 h after intravenous administration. The collected plasma, urine, and bile were immediately stored in an ice box until further analyses. HT (oral administration: 100 mg/kg; 648.66 μmol/kg, intravenous administration: 10 mg/kg; 64.87 μmol/kg) and Ole (oral administration: 300 mg/kg; 555.02 μmol/kg, intravenous administration: 10 mg/kg; 18.50 μmol/kg) were investigated using the same method as described above. Metabolites were deconjugated by using β-glucuronidase (500 U) and sulfatase (50 U) in 50 μL 625 mM MOPS (pH 6.8), which was added to 200 μL of plasma, urine, or bile. The mixture was incubated for 45 min at 37°C and subjected to extraction using QuEChERS [33]. […] Shimadzu, Kyoto, Japan) equipped with a Shim-pack XR-ODS column (3.0 mm I.D. × 100 mm; Shimadzu, Kyoto, Japan) at 40°C with a mobile phase of 0.5% TFA-1% acetonitrile aqueous solution (A) and 0.5% TFA-75% acetonitrile aqueous solution (B). The elution conditions are described as follows: isocratic elution of 0% B was maintained for 4.0 min; linear gradient 0 to 4% B, 4.0-4.5 min; linear gradient 4.0-16.0% B, 4.5-16.0 min; linear gradient 16.0-100% B, 16.0-25.0 min; isocratic elution of 100% B, 25.0-26.0 min; and linear gradient 100 to 0% B, 26.0-26.1 min, with a flow rate of 0.5 mL/min. Injection volume was 50 μL. All eluted peaks were detected at 279 nm with a diode array detector (SPD-M20A; Shimadzu, Kyoto, Japan).

[2] = Biliary excretion after intravenous administration in bile duct-cannulated rats; format: in vivo, Wistar ST rats
Description: as §1, with “University. After fasting, the rats were cannulated with a polyethylene tube (PE-50; 0.58 mm I.D., 0.965 mm O.D.) into the jugular vein, portal vein, or bile duct under anesthesia with isoflurane inhalation using a WP-SAA01 (LMS Co., Ltd., Tokyo, Japan). A small hole was made in the vein or duct using pointed scissors and cannulated with the polyethylene tube. After inserting the tube, it was fixed at the edge of the vein or duct. The jugular vein and portal vein cannulas penetrated under the skin and were then tied at the back of the rats, and the bile duct cannula was tied at the abdomen of the rats. Bile duct-cannulated rats were then restrained in a Bollman cage (Natsume Seisakusho Co., Ltd., Tokyo, Japan). Before further experiments, the rats were allowed to recover from anesthesia.” for “University.”

[3] = after oral administration, within 240 min

HT in urine [1, 3] | HVA in urine [1, 3] | HVAOH in urine [1, 3] | total excretion ratio including metabolites (3,4-DHPEA-EDA : HT : Ole) ([1]; urine after oral administration, Ole = 1) | Total metabolites (including intact compound) excreted in the urine ([1]; within 240 min after oral administration) | Detection of parent 3,4-DHPEA-EDA in bile [2] | HT in bile [2] | HVA in bile [2] | HVAOH in bile [2] | Ole in urine ([1]; after oral administration) | Ole in bile [2] | Compound | Detection of 3,4-DHPEA-EDA in urine ([1]; after oral administration)
0.51 % of dose | 0.38 % of dose and 0.39 % of dose | not detected | 12.9 | 0.9% | not observed | 0.174 % of dose and 0.17 % of dose | 0.048 % of dose and 0.05 % of dose | 0.255 % of dose and 0.26 % of dose |  |  | CC=C(C=O)C(CC=O)CC(=O)OCCc1ccc(O)c(O)c1 (centres unmarked) [3,4-DHPEA-EDA, 3,4-dihydroxyphenylethyl elenolate dialdehydic form] | not observed; also recorded: not detected
 |  |  |  |  |  |  |  |  | 0.07 % of dose | 3.22 % of dose | C/C=C1/[C@H](O[C@@H]2O[C@H](CO)[C@@H](O)[C@H](O)[C@H]2O)OC=C(C(=O)OC)[C@H]1CC(=O)OCCc1ccc(O)c(O)c1 [Oleuropein, reference compound] | 
1.14 % of dose |  |  |  |  |  | 0.079 % of dose |  |  |  |  | OCCc1ccc(O)c(O)c1 [Hydroxytyrosol, 2-(3,4-dihydroxyphenyl) ethyl alcohol, reference compound] | 
